Source: ChEMBL document CHEMBL1201862, “PubChem BioAssay data set” (2004)
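Dose response: 5 concentrations. Exposure: 48 h. Format: 96-well plates. Endpoint: linear interpolation; highest concentration if not reached. GI50 marks 50% less growth.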 Activity calls are given as the source filed them. Rule as the data show it: active = GI50 up to about 1.1 µM and inactive = higher.

Legend:
Experiment in all cases: DTP human tumour cell line panel, 48 h
SN12C = tested on: SN12C
Hs-578T = tested on: Hs-578T
786-0 = tested on: 786-0
HT-29 = tested on: HT-29
HOP-92 = tested on: HOP-92
NCI-H226 = tested on: NCI-H226
HCT-15 = tested on: HCT-15
HOP-62 = tested on: HOP-62
MCF7 = tested on: MCF7
MOLT-4 = tested on: MOLT-4
A498 = tested on: A498
RPMI-8226 = tested on: RPMI-8226
COLO 205 = tested on: COLO 205
CCRF-CEM = tested on: CCRF-CEM
SK-MEL-2 = tested on: SK-MEL-2
BT-549 = tested on: BT-549
SF-295 = tested on: SF-295
MDA-MB-435 = tested on: MDA-MB-435
SK-OV-3 = tested on: SK-OV-3
T47D = tested on: T47D

Row | SMILES | GI50 (SN12C) | GI50 (Hs-578T) | GI50 (786-0) | GI50 (HT-29) | GI50 (HOP-92) | GI50 (NCI-H226) | GI50 (HCT-15) [µM] | GI50 (HOP-62) | GI50 (MCF7) | GI50 (MOLT-4) | GI50 (A498) | GI50 (RPMI-8226) | GI50 (COLO 205) | GI50 (CCRF-CEM) | GI50 (SK-MEL-2) | GI50 (BT-549) | GI50 (SF-295) | GI50 (MDA-MB-435) | GI50 (SK-OV-3) | GI50 (T47D)
1 | COc1cc2c(c(OC)c1OC)C(=O)c1c(O)cc(C)c(OC)c1C2=O | > 100 µM (inactive) | 15.6 µM (inactive) | 78.3 µM (inactive) | > 100 µM (inactive) | > 100 µM (inactive) | > 100 µM (inactive) | > 100 | 50.7 µM (inactive) | > 100 µM (inactive) | > 100 µM (inactive) | > 100 µM (inactive) | > 100 µM (inactive) | > 100 µM (inactive) | > 10 µM (inactive) | 88.1 µM (inactive) | > 100 µM (inactive) | 82.6 µM (inactive) | 91.8 µM (inactive) |  | 
2 | Cn1c2ccccc2c(=O)c2c(O)cc3c(c21)C=CC1(CCCC1)O3 | > 100 µM (inactive) | 95.7 µM (inactive) | 76.4 µM (inactive) | 2.67 µM (inactive) | 25.7 µM (inactive) | > 100 µM (inactive) | > 100 | 85.3 µM (inactive) | > 100 µM (inactive) | > 100 µM (inactive) | > 100 µM (inactive) | > 100 µM (inactive) | > 100 µM (inactive) | > 100 µM (inactive) | > 100 µM (inactive) | > 100 µM (inactive) | 19 µM (inactive) | > 100 µM (inactive) | > 100 µM (inactive) | 
3 | COc1ccc(N2C(=O)CSC2c2cc(OC)c(OC)c(OC)c2)cc1 (stereo not given) | 25.1 µM (inactive) | 48.6 µM (inactive) | 21.4 µM (inactive) | 21.6 µM (inactive) | 54.6 µM (inactive) | 62.7 µM (inactive) | 16 |  | 37.6 µM (inactive) | 21.4 µM (inactive) | 29 µM (inactive) | 27.5 µM (inactive) | 25.4 µM (inactive) | 7.23 µM (inactive) | 33.9 µM (inactive) | 23.2 µM (inactive) | 22.6 µM (inactive) | 10.9 µM (inactive) | 24.2 µM (inactive) | 
4 | NC(=S)c1cccc(C2Nc3ccccc3O2)c1 (stereo not given) | < 0.01 µM (active) | > 100 µM (inactive) | > 100 µM (inactive) | 92.9 µM (inactive) | > 100 µM (inactive) | 12.1 µM (inactive) | 21.9 | > 100 µM (inactive) | 56.9 µM (inactive) | 41.7 µM (inactive) |  | < 0.01 µM (active) | > 100 µM (inactive) |  | > 100 µM (inactive) |  | 68.9 µM (inactive) | 43 µM (inactive) | > 100 µM (inactive) | 46.7 µM (inactive)
5 | COc1cccc(/C(Cl)=C(\C=O)c2cccc(OC)c2)c1 | 14 µM (inactive) |  | 14.8 µM (inactive) | 12.3 µM (inactive) | 12.4 µM (inactive) | 11 µM (inactive) | 5.6 | 12.3 µM (inactive) |  | 7.74 µM (inactive) | 19.3 µM (inactive) | 4.62 µM (inactive) | 11.9 µM (inactive) | 3.97 µM (inactive) | 15.4 µM (inactive) |  | 12.2 µM (inactive) |  | 20 µM (inactive) | 
6 | CC(=O)OCC1OC(n2ccc(=O)[nH]c2=O)C(OC(C)=O)C(OC(C)=O)C1OC(C)=O (stereo not given) | > 100 µM (inactive) |  | > 100 µM (inactive) | > 100 µM (inactive) | > 100 µM (inactive) | 9.16 µM (inactive) | > 100 | > 100 µM (inactive) |  | > 10 µM (inactive) | > 100 µM (inactive) | > 100 µM (inactive) | > 100 µM (inactive) | > 100 µM (inactive) | > 100 µM (inactive) |  | > 100 µM (inactive) |  | > 100 µM (inactive) | 
7 | N=C1c2ccccc2C(=O)c2c(NCCNCCO)ccc(O)c21 | 4.83 µM (inactive) |  | 4.73 µM (inactive) | 9.02 µM (inactive) | 24.9 µM (inactive) | 9.84 µM (inactive) | 25.5 | 4.91 µM (inactive) |  | 1.88 µM (inactive) | 13.7 µM (inactive) | 7.19 µM (inactive) | 4.73 µM (inactive) | 9.62 µM (inactive) | 17.1 µM (inactive) |  | 12.5 µM (inactive) |  | 6.55 µM (inactive) | 
8 | C=CCn1c(=O)c2ccccc2[n+]2c(-c3cccc([N+](=O)[O-])c3)csc12 | > 100 µM (inactive) | 24.4 µM (inactive) | 48.9 µM (inactive) | 30.8 µM (inactive) | 56.2 µM (inactive) | 12.5 µM (inactive) |  | 76.7 µM (inactive) | 42.9 µM (inactive) | 24.7 µM (inactive) | 31.6 µM (inactive) | 30.7 µM (inactive) | 24.8 µM (inactive) | 27.5 µM (inactive) | 30.6 µM (inactive) |  | 53.1 µM (inactive) | 40.8 µM (inactive) | 68.1 µM (inactive) | 19.7 µM (inactive)
